Here are results for eleven compounds from patent US10662195B2, “Protein kinase conjugates and inhibitors” (Celgene Avilomics Research, Inc., priority 2009, dated 2020).

Where two headings read alike, the source gives them in different places.

The target of one experiment is KDR (Homo sapiens, UniProt P35968). The experiment is described as follows: KDR Omnia continuous-read kinase assay. It is filed as biochemical. Set-up: purchased Invitrogen or BPS Bioscience PV3660 or 40301. Here is the method:
(§1) A. KDR and FLT-3 Omnia Assay for Potency Assessment:
(§2) The protocol below describes a continuous-read kinase assay to measure inherent potency of Avila Therapeutics' compounds against active KDR and FLT-3 enzymes. The assay was performed substantially as described by the vendor (Invitrogen, Carlsbad, Calif.; http://www.invitrogen.com/content.cfm?pageid=11338.)
Briefly, 10× stocks of KDR from Invitrogen or BPS Bioscience (PV3660 or 40301) and FLT-3 (PV3182) enzymes, 1.13×ATP (AS001A) and Y9-Sox or Y12-Sox peptide substrates (KCZ1001) were prepared in 1× kinase reaction buffer consisting of 20 mM Tris, pH 7.5, 5 mM MgCl2, 1 mM EGTA, 5 mM β-glycerophosphate, 5% glycerol (10× stock, KB002A) and 0.2 mM DTT (DS001A). 5 μL of enzyme were pre-incubated in a Corning (#3574) 384-well, white, non-binding surface microtiter plate (Corning, N.Y.) for 30 min at 27° C. with a 0.5 μL volume of 50% DMSO and serially diluted compounds prepared in 50% DMSO. Kinase reactions were started with the addition of 45 μL of the ATP/Y9 or Y5-Sox peptide substrate mix and monitored every 30-90 seconds for 60 minutes at λex360/λem485 in a Synergy^4 plate reader from BioTek (Winooski, Vt.). At the conclusion of each assay, progress curves from each well were examined for linear reaction kinetics and fit statistics (R^2, 95% confidence interval, absolute sum of squares). Initial velocity (0 minutes to 20+ minutes) from each reaction was determined from the slope of a plot of relative fluorescence units vs time (minutes) and then plotted against inhibitor concentration to estimate IC50 from Log [Inhibitor] vs Response, Variable Slope model in GraphPad Prism from GraphPad Software (San Diego, Calif.). […]
(§3) The reported IC50_APP and IC50 values are in units of nM.

The target in a further experiment is BTK (Homo sapiens, UniProt Q06187). Description: Omnia assay for potency assessment against BTK. In kind it is biochemical.
Sequence of BTK (Q06187 whole entry): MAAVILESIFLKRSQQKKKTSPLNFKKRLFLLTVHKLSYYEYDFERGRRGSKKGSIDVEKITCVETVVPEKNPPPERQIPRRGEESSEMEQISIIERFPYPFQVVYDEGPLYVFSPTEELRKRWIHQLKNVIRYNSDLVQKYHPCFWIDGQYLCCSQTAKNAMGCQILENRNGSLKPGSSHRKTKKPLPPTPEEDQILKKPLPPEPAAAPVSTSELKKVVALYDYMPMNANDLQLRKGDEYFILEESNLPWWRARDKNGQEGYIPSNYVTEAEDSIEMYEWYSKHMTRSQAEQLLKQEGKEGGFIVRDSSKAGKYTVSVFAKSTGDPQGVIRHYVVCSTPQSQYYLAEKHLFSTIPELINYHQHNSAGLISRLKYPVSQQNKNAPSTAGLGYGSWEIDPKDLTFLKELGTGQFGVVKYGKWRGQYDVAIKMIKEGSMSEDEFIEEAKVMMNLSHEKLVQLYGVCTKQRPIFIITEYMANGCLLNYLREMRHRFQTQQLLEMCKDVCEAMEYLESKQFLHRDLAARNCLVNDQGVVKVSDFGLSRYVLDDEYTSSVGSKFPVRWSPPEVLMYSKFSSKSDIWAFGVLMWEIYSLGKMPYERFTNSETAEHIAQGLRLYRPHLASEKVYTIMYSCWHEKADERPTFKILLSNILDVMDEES
Text: B. Omnia Assay Protocol for Potency Assessment Against BTK
Below describes the protocol using EGFR-WT and EGFR-T790M/L858R and the protocol BTK-optimized reagent conditions then follow.
The mechanics of the assay platform are best described by the vendor (Invitrogen, Carlsbad, Calif.) on their website at the following URL: http://www.invitrogen.com/content.cfm?pageid=11338 or http://www.invitrogen.com/site/us/en/home/Products-and-Services/Applications/Drug-Discovery/Target-and-Lead-Identification-and-Validation/KinaseBiology/KB-Misc/Biochemical-Assays/Omnia-Kinase-Assays.html.
Briefly, 10× stocks of EGFR-WT (PV3872) from Invitrogen and EGFR-T790M/L858R (40350) from BPS Bioscience, San Diego, Calif., 1.13×ATP (AS001A) and appropriate Tyr-Sox conjugated peptide substrates (KCZ1001) were prepared in 1× kinase reaction buffer consisting of 20 mM Tris, pH 7.5, 5 mM MgCl2, 1 mM EGTA, 5 mM β-glycerophosphate, 5% glycerol (10× stock, KB002A) and 0.2 mM DTT (DS001A). 5 μL of each enzyme were pre-incubated in a Corning (#3574) 384-well, white, non-binding surface microtiter plate (Corning, N.Y.) for 30 min. at 27° C. with a 0.5 μL volume of 50% DMSO and serially diluted compounds prepared in 50% DMSO. Kinase reactions were started with the addition of 45 μL of the ATP/Tyr-Sox peptide substrate mix and monitored every 30-90 seconds for 60 minutes at λex360/λem485 in a Synergy^4 plate reader from BioTek (Winooski, Vt.). At the conclusion of each assay, progress curves from each well were examined for linear reaction kinetics and fit statistics (R^2, 95% confidence interval, absolute sum of squares). Initial velocity (0 minutes to ˜30 minutes) from each reaction was determined from the slope of a plot of relative fluorescence units vs time (minutes) and then plotted against inhibitor concentration to estimate IC50 from log [Inhibitor] vs Response, Variable Slope model in GraphPad Prism from GraphPad Software (San Diego, Calif.).
The modified BTK-optimized reagent conditions for the above protocol are:
[BTK]=5 nM, [ATP]=[…], [Y5-Sox]=[…] (ATP KMapp˜[…]).
as §3

The next experiment has as its target T1, FLT3 (Homo sapiens, UniProt P36888).
T1 construct: purchased PV3182
T1 sequence (P36888 27-993): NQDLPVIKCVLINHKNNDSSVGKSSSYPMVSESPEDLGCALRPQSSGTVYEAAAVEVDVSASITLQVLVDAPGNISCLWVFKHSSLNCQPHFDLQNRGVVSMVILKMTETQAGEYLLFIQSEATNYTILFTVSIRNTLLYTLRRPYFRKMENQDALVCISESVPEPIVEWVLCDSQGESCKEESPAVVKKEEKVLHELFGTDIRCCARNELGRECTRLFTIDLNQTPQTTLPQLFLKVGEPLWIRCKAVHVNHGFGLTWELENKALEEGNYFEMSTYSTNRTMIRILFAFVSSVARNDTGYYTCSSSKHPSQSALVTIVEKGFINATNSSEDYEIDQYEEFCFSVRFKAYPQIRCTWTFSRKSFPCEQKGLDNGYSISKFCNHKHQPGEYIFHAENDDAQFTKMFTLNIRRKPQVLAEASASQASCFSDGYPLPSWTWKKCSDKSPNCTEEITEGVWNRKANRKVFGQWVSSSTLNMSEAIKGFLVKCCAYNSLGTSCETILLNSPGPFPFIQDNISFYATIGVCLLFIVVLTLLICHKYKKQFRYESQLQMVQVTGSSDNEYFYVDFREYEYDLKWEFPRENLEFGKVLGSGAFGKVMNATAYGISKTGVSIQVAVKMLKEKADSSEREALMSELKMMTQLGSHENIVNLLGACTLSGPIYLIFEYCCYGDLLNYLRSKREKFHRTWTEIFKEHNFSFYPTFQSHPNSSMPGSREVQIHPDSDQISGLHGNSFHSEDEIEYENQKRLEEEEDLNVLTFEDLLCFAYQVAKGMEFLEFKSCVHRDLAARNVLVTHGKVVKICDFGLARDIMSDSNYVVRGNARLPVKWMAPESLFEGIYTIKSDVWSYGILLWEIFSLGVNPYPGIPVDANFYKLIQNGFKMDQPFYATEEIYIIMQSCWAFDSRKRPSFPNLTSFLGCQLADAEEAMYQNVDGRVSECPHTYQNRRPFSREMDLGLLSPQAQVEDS
Description: FLT-3 Omnia continuous-read kinase assay. It is filed as biochemical. Here is the method: as §1, §2
Briefly, 10× stocks of KDR from Invitrogen or BPS Bioscience (PV3660 or 40301) and FLT-3 (PV3182) enzymes, 1.13×ATP (AS001A) and Y9-Sox or Y12-Sox peptide substrates (KCZ1001) were prepared in 1× kinase reaction buffer consisting of 20 mM Tris, pH 7.5, 5 mM MgCl2, 1 mM EGTA, 5 mM β-glycerophosphate, 5% glycerol (10× stock, KB002A) and 0.2 mM DTT (DS001A). 5 μL of enzyme were pre-incubated in a Corning (#3574) 384-well, white, non-binding surface microtiter plate (Corning, N.Y.) for 30 min at 27° C. with a 0.5 μL volume of 50% DMSO and serially diluted compounds prepared in 50% DMSO. Kinase reactions were started with the addition of 45 μL of the ATP/Y9 or Y5-Sox peptide substrate mix and monitored every 30-90 seconds for 60 minutes at λex360/λem485 in a Synergy^4 plate reader from BioTek (Winooski, Vt.). At the conclusion of each assay, progress curves from each well were examined for linear reaction kinetics and fit statistics (R^2, 95% confidence interval, absolute sum of squares). Initial velocity (0 minutes to 20+ minutes) from each reaction was determined from the slope of a plot of relative fluorescence units vs time (minutes) and then plotted against inhibitor concentration to estimate IC50 from Log [Inhibitor] vs Response, Variable Slope model in GraphPad Prism from GraphPad Software (San Diego, Calif.).
[FLT-3]=15 nM, [ATP]=500 μM and [Y5-Sox peptide]=10 μM (ATP KMapp=470 μM)
as §3

For a further experiment, the target named is FAK (PTK2) (Homo sapiens, UniProt Q05397). Description: Mass spectral analysis of intact FAK after incubation with compound. In kind it is binding. Particulars: 1 hr, 10× excess of compound to protein, intact protein MALDI. Here is the method:
Intact FAK (PTK2) was incubated for 1 hr at a 10× fold access of compound IV-29 to protein. 3 ul aliquots of the samples were diluted with 10 ul of 0.1% TFA prior to micro C4 ZipTipping directly onto the MALDI target using Sinapinic acid as the desorption matrix (10 mg/ml in 0.1% TFA:Acetonitrile 50:50). Mass spec analysis was run on intact FAK (PTK2) protein (m/z 146,672 Da), and on FAK that was incubated with compound IV-29 (mw=669.2).

The next experiment has as its target CKIT (Homo sapiens, UniProt P10721). The experiment is described as follows: c-Kit Omnia kinase assay. In kind it is biochemical. The note with it: read-out: IC50_APP CKIT.
The target of the next experiment is CKIT D816V (Homo sapiens, UniProt P10721, D816V). Description: c-Kit mutant Omnia kinase assay. It is filed as biochemical. The note with it: read-out: IC50_APP CKIT D816V.
Sequence of CKIT D816V (P10721 26-976 D816V): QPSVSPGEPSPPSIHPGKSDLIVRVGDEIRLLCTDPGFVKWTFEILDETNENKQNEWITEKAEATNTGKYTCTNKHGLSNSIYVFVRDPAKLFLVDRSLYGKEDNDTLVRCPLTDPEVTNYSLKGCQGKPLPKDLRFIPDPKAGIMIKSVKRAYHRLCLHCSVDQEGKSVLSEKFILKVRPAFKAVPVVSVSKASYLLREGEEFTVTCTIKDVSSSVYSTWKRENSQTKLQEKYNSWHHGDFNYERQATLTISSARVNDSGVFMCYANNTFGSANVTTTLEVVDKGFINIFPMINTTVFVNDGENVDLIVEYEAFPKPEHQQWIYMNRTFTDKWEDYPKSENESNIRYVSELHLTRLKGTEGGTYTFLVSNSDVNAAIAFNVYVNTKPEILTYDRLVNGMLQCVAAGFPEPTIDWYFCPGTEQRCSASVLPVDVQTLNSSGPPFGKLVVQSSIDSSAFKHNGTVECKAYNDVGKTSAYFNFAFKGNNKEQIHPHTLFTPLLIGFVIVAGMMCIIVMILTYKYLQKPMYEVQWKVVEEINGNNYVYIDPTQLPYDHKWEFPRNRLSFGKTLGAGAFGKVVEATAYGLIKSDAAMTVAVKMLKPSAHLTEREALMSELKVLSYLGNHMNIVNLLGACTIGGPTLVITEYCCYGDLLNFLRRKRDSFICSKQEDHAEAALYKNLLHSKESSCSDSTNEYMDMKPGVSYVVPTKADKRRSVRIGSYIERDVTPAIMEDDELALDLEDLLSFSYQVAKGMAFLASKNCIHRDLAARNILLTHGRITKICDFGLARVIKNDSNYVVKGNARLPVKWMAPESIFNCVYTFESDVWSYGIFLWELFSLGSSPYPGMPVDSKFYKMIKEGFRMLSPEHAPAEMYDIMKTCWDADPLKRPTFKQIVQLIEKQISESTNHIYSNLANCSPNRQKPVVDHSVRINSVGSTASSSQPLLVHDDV
[1] abbreviates: 30 min pre-incubation, read-out: IC50_APP KDR.
Setting [2] is: 30 min pre-incubation, read-out: IC50_APP BTK.
The mark [3] stands for this setting: 30 min pre-incubation, [ATP]=500 μM, read-out: IC50_APP FLT3.
Setting [4] is: reversible reference compounds, read-out: IC50 KDR.
Setting [5] is: reversible reference compounds, read-out: IC50 BTK.

Sequence of KDR (P35968 20-1356): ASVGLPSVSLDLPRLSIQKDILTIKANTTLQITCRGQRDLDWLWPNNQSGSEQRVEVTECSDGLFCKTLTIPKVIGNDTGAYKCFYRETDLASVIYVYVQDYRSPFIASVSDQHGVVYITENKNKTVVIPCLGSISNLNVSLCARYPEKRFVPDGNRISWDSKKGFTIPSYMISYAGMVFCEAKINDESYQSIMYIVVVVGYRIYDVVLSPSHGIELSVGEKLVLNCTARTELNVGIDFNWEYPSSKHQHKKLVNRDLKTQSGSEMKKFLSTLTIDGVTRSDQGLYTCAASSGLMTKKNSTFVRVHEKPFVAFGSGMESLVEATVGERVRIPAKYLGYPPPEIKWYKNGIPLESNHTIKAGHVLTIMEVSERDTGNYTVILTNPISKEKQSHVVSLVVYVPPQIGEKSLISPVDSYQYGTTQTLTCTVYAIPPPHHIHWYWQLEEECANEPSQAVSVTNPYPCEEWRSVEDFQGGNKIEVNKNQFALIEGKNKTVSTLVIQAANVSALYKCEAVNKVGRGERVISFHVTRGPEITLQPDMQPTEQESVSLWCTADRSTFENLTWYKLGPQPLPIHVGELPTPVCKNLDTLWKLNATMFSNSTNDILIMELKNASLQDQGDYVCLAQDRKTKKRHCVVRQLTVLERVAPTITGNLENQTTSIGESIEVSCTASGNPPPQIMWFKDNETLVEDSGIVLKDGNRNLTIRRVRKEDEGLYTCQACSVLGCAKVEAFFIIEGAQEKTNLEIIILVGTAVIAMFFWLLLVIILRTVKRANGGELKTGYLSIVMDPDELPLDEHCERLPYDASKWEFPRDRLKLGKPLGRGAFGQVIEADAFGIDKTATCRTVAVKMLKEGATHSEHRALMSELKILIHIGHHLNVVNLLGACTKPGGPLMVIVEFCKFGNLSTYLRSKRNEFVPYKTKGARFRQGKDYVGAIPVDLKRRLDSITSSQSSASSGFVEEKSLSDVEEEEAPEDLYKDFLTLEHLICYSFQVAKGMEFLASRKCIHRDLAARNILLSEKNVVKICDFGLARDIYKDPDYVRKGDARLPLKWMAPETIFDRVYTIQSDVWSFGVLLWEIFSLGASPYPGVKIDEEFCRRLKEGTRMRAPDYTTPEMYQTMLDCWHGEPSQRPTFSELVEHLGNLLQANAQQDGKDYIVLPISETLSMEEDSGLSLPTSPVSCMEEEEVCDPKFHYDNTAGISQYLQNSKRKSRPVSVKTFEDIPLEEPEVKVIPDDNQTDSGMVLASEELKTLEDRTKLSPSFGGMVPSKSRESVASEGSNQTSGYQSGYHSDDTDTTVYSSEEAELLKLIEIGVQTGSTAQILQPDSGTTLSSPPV
Sequence of CKIT (P10721 26-976): as the sequence (P10721 26-976 D816V) above, with V791D counted along it
Sequence of FAK (PTK2) (Q05397 whole entry): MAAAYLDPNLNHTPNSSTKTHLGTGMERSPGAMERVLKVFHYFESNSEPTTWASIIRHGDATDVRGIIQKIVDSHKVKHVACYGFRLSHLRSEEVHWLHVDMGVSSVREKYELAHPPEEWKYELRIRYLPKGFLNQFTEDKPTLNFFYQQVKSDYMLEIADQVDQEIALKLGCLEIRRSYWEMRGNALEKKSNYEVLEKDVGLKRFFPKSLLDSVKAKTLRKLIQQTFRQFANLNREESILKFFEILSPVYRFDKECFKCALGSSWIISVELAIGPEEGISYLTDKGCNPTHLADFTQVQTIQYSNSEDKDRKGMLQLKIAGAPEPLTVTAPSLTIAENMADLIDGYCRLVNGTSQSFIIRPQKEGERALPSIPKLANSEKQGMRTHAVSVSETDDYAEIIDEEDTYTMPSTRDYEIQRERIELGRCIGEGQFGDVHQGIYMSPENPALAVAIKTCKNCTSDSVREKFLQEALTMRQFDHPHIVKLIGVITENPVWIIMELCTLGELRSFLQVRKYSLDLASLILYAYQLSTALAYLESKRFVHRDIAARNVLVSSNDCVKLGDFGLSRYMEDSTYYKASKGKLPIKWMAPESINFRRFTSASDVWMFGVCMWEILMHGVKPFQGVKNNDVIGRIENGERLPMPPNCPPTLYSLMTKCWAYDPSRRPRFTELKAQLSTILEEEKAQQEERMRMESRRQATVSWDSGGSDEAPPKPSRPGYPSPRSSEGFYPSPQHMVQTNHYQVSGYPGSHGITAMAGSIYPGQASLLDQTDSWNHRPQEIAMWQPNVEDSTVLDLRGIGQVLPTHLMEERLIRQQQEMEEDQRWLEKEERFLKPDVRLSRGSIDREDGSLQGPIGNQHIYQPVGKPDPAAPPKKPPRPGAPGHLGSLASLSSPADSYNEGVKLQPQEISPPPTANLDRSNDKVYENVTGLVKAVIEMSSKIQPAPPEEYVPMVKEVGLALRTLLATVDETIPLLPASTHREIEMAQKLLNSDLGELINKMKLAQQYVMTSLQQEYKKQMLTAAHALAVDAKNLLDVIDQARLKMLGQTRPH

Consider `C=CC(=O)Nc1ccc(Sc2nc(Nc3ncc(C#N)s3)cc(N3CCN(C)CC3)n2)cc1` [II-1, N-(4-(4-(5-Cyanothiazol-2-ylamino)-6-(4-methylpiperazin-1-yl)pyrimidin-2-ylthio)phenyl)acrylamide], for which the IC50 on KDR (setting [1]) worked out at 0.0393 µM; at BTK (setting [2]), 6.17 µM; at FLT3 (setting [3]) it was 0.00315 µM.
Regarding `CCC(=O)N1CCC(Sc2nc(Nc3ncc(C#N)s3)cc(N3CCN(C)CC3)n2)CC1` [Reversible Reference Compound 2, 2-(2-(1-Propionylpiperidin-4-ylthio)-6-(4-methylpiperazin-1-yl)pyrimidin-4-ylamino)thiazole-5-carbonitrile, reference compound], the IC50 at KDR (setting [4]) turned out to be 0.0957 µM; at BTK (setting [5]), 0.184 µM.
As to `C=CC(=O)Nc1cc(NC(=O)Nc2ccc(Oc3ccnc(C(=O)NC)c3)cc2)ccc1Cl` [XVIII-15], the IC50 at KDR (setting [1]) is 0.462 µM.
`CC#CC(=O)N1CCC(Sc2nc(Nc3ncc(C#N)s3)cc(N3CCN(C)CC3)n2)CC1` [II-3]: the IC50 turned out to be 0.29 µM on KDR (setting [1]) and 0.459 µM at BTK (setting [2]).
Take `CCC(=O)Nc1ccc(Sc2nc(Nc3ncc(C#N)s3)cc(N3CCN(C)CC3)n2)cc1` [Reversible Reference Compound 1, N-(4-(4-(5-Cyanothiazol-2-ylamino)-6-(4-methylpiperazin-1-yl)pyrimidin-2-ylthio)phenyl)propionamide, reference compound]: the IC50 was 0.254 µM on KDR (setting [4]); 1.64 µM at BTK (setting [5]); 0.00584 µM on FLT3 (reversible reference compounds, read-out: IC50 FLT3).
With `C=CC(=O)Nc1ccc(S(=O)(=O)N2CCN(c3ccc(Nc4ncc(Cl)c(Nc5ccccc5C(=O)NC)n4)c(OC)c3)CC2)cc1` [IV-31, 2-(2-{4-[4-(4-Acryloylamino-benzenesulfonyl)-piperazin-1-yl]-2-methoxy-phenylamino}-5-chloro-pyrimidin-4-ylamino)-N-methyl-benzamide], the “modification of FAK (PTK2) by compound, mass spec” value at FAK (PTK2) is “partial modification of FAK”.
For `CNC(=O)c1cc(Oc2ccc(NC(=O)Nc3ccc(NC(=O)/C=C/CN(C)C)c(C(F)(F)F)c3)cc2)ccn1` [XVIII-12], the IC50 turned out to be 0.0104 µM at CKIT, 0.148 µM on KDR (setting [1]), 0.0025 µM on CKIT D816V and 0.00107 µM on FLT3 (setting [3]).
In the case of `C=CC(=O)NCCSc1nc(Nc2ncc(C#N)s2)cc(N2CCN(C)CC2)n1` [II-4, N-(2-(4-(5-cyanothiazol-2-ylamino)-6-(4-methylpiperazin-1-yl)pyrimidin-2-ylthio)ethyl)acrylamide], the IC50 at KDR (setting [1]) amounted to 0.111 µM; at BTK (setting [2]) it was 5.08 µM.
Consider `C=CC(=O)Nc1ccc(Sc2nc(Nc3cc(C)n[nH]3)cc(N3CCN(C)CC3)n2)cc1` [II-53, N-(4-(4-(3-Methyl-1H-pyrazol-5-ylamino)-6-(4-methylpiperiazin-1-yl)pyrimidin-2ylthio)phenyl)acrylamide], for which the IC50 was found to be 0.114 µM at CKIT, 0.0152 µM at KDR (setting [1]), 0.127 µM on CKIT D816V and 0.00376 µM on FLT3 (setting [3]).
With `CN(C)C/C=C/C(=O)N1CCC(Sc2nc(Nc3ncc(C#N)s3)cc(N3CCN(C)CC3)n2)CC1` [II-5], the IC50 was determined as 0.0397 µM at KDR (setting [1]) and 0.106 µM at BTK (setting [2]).
As to `C=CC(=O)N(C)c1ccc(NC(=O)Nc2ccc(Oc3ccnc(C(=O)NC)c3)cc2)cc1` [XVIII-16, 4-(4-(3-(4-(N-methylacrylamido)phenyl)ureido)phenoxy)-N-methylpicolinamide], on KDR (setting [1]), the IC50 is 1.34 µM.
